Experimental findings from patent US11697646B2, “Triazole N-linked carbamoyl cyclohexyl acids as LPA antagonists” (BRISTOL-MYERS SQUIBB COMPANY, priority 2017, dated 2023) are described below.

This experiment addresses T1, human LPA1 (Homo sapiens, UniProt Q92633).
T1 construct: expressed in transfected cells; host or cells: Chinese hamster ovary (CHO) cells
The experiment in a line: LPA1 functional antagonist assay (calcium flux). Type of experiment: cell-based. The note with it: CHO cells overexpressing human LPA1; calcium flux induced by 10 nM LPA; read-out: hLPA1 IC50. On the procedure: The effectiveness of compounds of the present invention as LPA1 inhibitors can be determined in an LPA1 functional antagonist assay as follows:
The cells were then equilibrated to room temperature for 30 minutes before the assay. […] IC50 values were determined by fitting data to a 4-parameter logistic equation (GraphPad Prism, San Diego Calif.).
A general note: Calcium assays in cells follow changes in intracellular calcium, usually with a dye or a luminescent sensor.

The structures appear in SMILES notation.

T1 sequence (Q92633 whole entry): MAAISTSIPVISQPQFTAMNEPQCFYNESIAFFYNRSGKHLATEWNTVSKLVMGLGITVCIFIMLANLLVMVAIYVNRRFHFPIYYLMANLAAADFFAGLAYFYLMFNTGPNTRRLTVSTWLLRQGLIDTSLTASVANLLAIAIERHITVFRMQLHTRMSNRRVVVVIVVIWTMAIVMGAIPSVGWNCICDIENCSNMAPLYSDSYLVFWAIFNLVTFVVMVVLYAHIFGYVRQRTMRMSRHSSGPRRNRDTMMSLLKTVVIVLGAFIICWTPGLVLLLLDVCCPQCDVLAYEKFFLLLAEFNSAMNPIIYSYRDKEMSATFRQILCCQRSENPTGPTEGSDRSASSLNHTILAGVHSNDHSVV

Usually IC50 stands for the concentration needed to halve the response being measured. Take `CC(C)COC(=O)Nc1c(-c2ccc(O[C@H]3CCC[C@H](C(=O)O)C3)cn2)nnn1C` [Example 87, (1S,3S)-3-((6-(5-((isobutoxy-carbonyl)amino)-1-methyl-1H-1,2,3-triazol-4-yl)pyridin-3-yl)oxy)cyclohexane-1-carboxylic acid]: the IC50 amounted to 0.219 µM.

Turning to `CCCCCOC(=O)Nc1c(-c2ccc(O[C@H]3CCC[C@H](C(=O)O)C3)cn2)nnn1C` [Example 88], the IC50 was found to be 0.034 µM.

For the compound `CCCCOC(=O)Nc1c(-c2ccc(O[C@H]3CCC[C@H](C(=O)O)C3)cn2)nnn1C` [Example 89, (1S,3S)-3-((6-(5-((butoxycarbonyl)amino)-1-methyl-1H-1,2,3-triazol-4-yl)pyridin-3-yl)oxy)cyclohexane-1-carboxylic acid], the IC50 was determined as 0.066 µM.

For `Cn1nnc(-c2ccc(O[C@H]3CCC[C@H](C(=O)O)C3)cn2)c1NC(=O)OC1CCCC1` [Example 90, (1S,3S)-3-((6-(5-(((cyclopentyloxy)carbonyl)amino)-1-methyl-1H-1,2,3-triazol-4-yl)pyridin-3-yl)oxy)cyclohexane-1-carboxylic acid], the IC50 came to 0.149 µM.

For the compound `C[C@@H](OC(=O)Nc1c(-c2ccc(O[C@H]3CCC[C@H](C(=O)O)C3)cn2)nnn1C)c1ccccc1` [Example 91, (1S,3S)-3-((6-(1-methyl-5-((((R)-1-phenylethoxy)carbonyl)amino)-1H-1,2,3-triazol-4-yl)pyridin-3-yl)oxy)cyclohexane-1-carboxylic acid], the IC50 is 0.035 µM.

Regarding `Cn1nnc(-c2ccc(O[C@H]3CCC[C@H](C(=O)O)C3)c(C(F)(F)F)n2)c1CNC(=O)OCc1ccccc1` [Example 92, (1S,3S)-3-((6-(5-((((benzyloxy)carbonyl)amino)methyl)-1-methyl-1H-1,2,3-triazol-4-yl)-2-(trifluoro-methyl)pyridin-3-yl)oxy)cyclohexane-1-carboxylic acid], the IC50 amounted to 0.014 µM.

In the case of `CC(C)COC(=O)NCc1c(-c2ccc(O[C@H]3CCC[C@H](C(=O)O)C3)c(C(F)(F)F)n2)nnn1C` [Example 93, (1S,3S)-3-((6-(5-(((isobutoxy-carbonyl)amino)methyl)-1-methyl-1H-1,2,3-triazol-4-yl)-2-(trifluoro-methyl)pyridin-3-yl)oxy)cyclohexane-1-carboxylic acid], the IC50 was determined as 0.025 µM.

`CCCCOC(=O)NCc1c(-c2ccc(O[C@H]3CCC[C@H](C(=O)O)C3)c(C(F)(F)F)n2)nnn1C` [Example 94, (1S,3S)-3-((6-(5-(((butoxycarbonyl)amino)methyl)-1-methyl-1H-1,2,3-triazol-4-yl)-2-(trifluoromethyl)pyridin-3-yl)oxy)cyclohexane-1-carboxylic acid]: the IC50 was 0.014 µM.

On to `CCCOC(=O)NCc1c(-c2ccc(O[C@H]3CCC[C@H](C(=O)O)C3)c(C(F)(F)F)n2)nnn1C` [Example 95, (1S,3S)-3-((6-(1-methyl-5-(((propoxy-carbonyl)amino)methyl)-1H-1,2,3-triazol-4-yl)-2-(trifluoromethyl)pyridin-3-yl)oxy)cyclohexane-1-carboxylic acid], for which the IC50 was 0.867 µM.

As for `Cn1nnc(-c2ccc(O[C@H]3CCC[C@H](C(=O)O)C3)c(C(F)(F)F)n2)c1CNC(=O)OC1CCCC1` [Example 96], the IC50 amounted to 0.033 µM.

Consider `Cn1nnc(-c2ccc(O[C@H]3CCC[C@H](C(=O)O)C3)c(C(F)(F)F)n2)c1CNC(=O)OCCCCF` [Example 97, (1S,3S)-3-((6-(5-((((4-fluorobutoxy)carbonyl)amino)methyl)-1-methyl-1H-1,2,3-triazol-4-yl)-2-(trifluoro-methyl)pyridin-3-yl)oxy)cyclohexane-1-carboxylic acid], for which the IC50 worked out at 0.025 µM.

With `Cn1nnc(-c2ccc(O[C@H]3CCC[C@H](C(=O)O)C3)c(C(F)F)n2)c1CNC(=O)OCc1ccccc1` [Example 98, (1S,3S)-3-((6-(5-((((benzyloxy)carbonyl)amino)methyl)-1-methyl-1H-1,2,3-triazol-4-yl)-2-(difluoro-methyl)pyridin-3-yl)oxy)cyclohexane-1-carboxylic acid], the IC50 stood at 0.033 µM.

Regarding `CC(C)COC(=O)NCc1c(-c2ccc(O[C@H]3CCC[C@H](C(=O)O)C3)c(C(F)F)n2)nnn1C` [Example 99, (1S,3S)-3-((2-(difluoromethyl)-6-(5-(((isobutoxycarbonyl)amino)methyl)-1-methyl-1H-1,2,3-triazol-4-yl)pyridin-3-yl)oxy)cyclohexane-1-carboxylic acid], the IC50 worked out at 0.071 µM.

Regarding `CCCCOC(=O)NCc1c(-c2ccc(O[C@H]3CCC[C@H](C(=O)O)C3)c(C(F)F)n2)nnn1C` [Example 100, (1S,3S)-3-((6-(5-(((butoxycarbonyl)amino)methyl)-1-methyl-1H-1,2,3-triazol-4-yl)-2-(difluoromethyl)pyridin-3-yl)oxy)cyclohexane-1-carboxylic acid], the IC50 came to 0.039 µM.

Turning to `CCCOC(=O)NCc1c(-c2ccc(O[C@H]3CCC[C@H](C(=O)O)C3)c(C(F)F)n2)nnn1C` [Example 101, (1S,3S)-3-((2-(difluoromethyl)-6-(1-methyl-5-(((propoxycarbonyl)amino)methyl)-1H-1,2,3-triazol-4-yl)pyridin-3-yl)oxy)cyclohexane-1-carboxylic acid], the IC50 amounted to 2.03 µM.

Take `COCc1nc(-c2nnn(C)c2CNC(=O)OCc2ccccc2)ccc1O[C@H]1CCC[C@H](C(=O)O)C1` [Example 102, (1S,3S)-3-((6-(5-((((benzyloxy)carbonyl)amino)methyl)-1-methyl-1H-1,2,3-triazol-4-yl)-2-(methoxy-methyl)pyridin-3-yl)oxy)cyclohexane-1-carboxylic acid]: the half-inhibitory concentration (IC50) was determined as 0.03 µM.

In the case of `Cc1nc(-c2nnn(C)c2CCNC(=O)OCc2ccccc2Cl)ccc1O[C@H]1CCC[C@H](C(=O)O)C1` [Example 103, (1S,3S)-3-((6-(5-(2-((((2-chloro-benzyl)oxy)carbonyl)amino)ethyl)-1-methyl-1H-1,2,3-triazol-4-yl)-2-methylpyridin-3-yl)oxy)cyclohexane-1-carboxylic acid], the IC50 is 0.595 µM.

Consider `Cc1nc(-c2nnn(C)c2CCNC(=O)OCC(C)(C)C)ccc1O[C@H]1CCC[C@H](C(=O)O)C1` [Example 104, (1S,3S)-3-((2-methyl-6-(1-methyl-5-(2-(((neopentyloxy)carbonyl)amino)ethyl)-1H-1,2,3-triazol-4-yl)pyridin-3-yl)oxy)cyclohexane-1-carboxylic acid], for which the IC50 stood at 1.36 µM.

Consider `Cc1nc(-c2nnn(C)c2CCNC(=O)OC2CCCC2)ccc1O[C@H]1CCC[C@H](C(=O)O)C1` [Example 105, (1S,3S)-3-((6-(5-(2-(((cyclopentyl-oxy)carbonyl)amino)ethyl)-1-methyl-1H-1,2,3-triazol-4-yl)-2-methyl-pyridin-3-yl)oxy)cyclohexane-1-carboxylic acid], for which the IC50 was 1.83 µM.

In the case of `Cc1nc(-c2nnn(C)c2CCNC(=O)OCc2ccccc2)ccc1O[C@H]1CCC[C@H](C(=O)O)C1` [Example 106, (1S,3S)-3-((6-(5-(2-(((benzyloxy)carbonyl)amino)ethyl)-1-methyl-1H-1,2,3-triazol-4-yl)-2-methylpyridin-3-yl)oxy)cyclohexane-1-carboxylic acid], the IC50 amounted to 0.525 µM.

Take `CCCCOC(=O)NCCc1c(-c2ccc(O[C@H]3CCC[C@H](C(=O)O)C3)c(C)n2)nnn1C` [Example 107, (1S,3S)-3-((6-(5-(2-((butoxy-carbonyl)amino)ethyl)-1-methyl-1H-1,2,3-triazol-4-yl)-2-methylpyridin-3-yl)oxy)cyclohexane-1-carboxylic acid]: the IC50 is 1.46 µM.

On to `Cc1nc(-c2nnn(C)c2CNC(=O)N(C)CC2CCC2)ccc1O[C@H]1CCC[C@H](C(=O)O)C1` [Example 108, (1S,3S)-3-((6-(5-((3-(cyclobutylmethyl)-3-methylureido)methyl)-1-methyl-1H-1,2,3-triazol-4-yl)-2-methylpyridin-3-yl)oxy)cyclohexanecarboxylic acid], for which the IC50 amounted to 0.082 µM.

Turning to `Cc1nc(-c2nnn(C)c2CNC(=O)N(C)Cc2ccccc2)ccc1O[C@H]1CCC[C@H](C(=O)O)C1` [Example 109, (1S,3S)-3-((6-(5-((3-benzyl-3-methyl-ureido)methyl)-1-methyl-1H-1,2,3-triazol-4-yl)-2-methylpyridin-3-yl)oxy)cyclohexanecarboxylic acid], the half-inhibitory concentration (IC50) worked out at 0.085 µM.

Turning to `CCCN(C)C(=O)NCc1c(-c2ccc(O[C@H]3CCC[C@H](C(=O)O)C3)c(C)n2)nnn1C` [Example 110, (1S,3S)-3-((2-methyl-6-(1-methyl-5-((3-methyl-3-propylureido)methyl)-1H-1,2,3-triazol-4-yl)pyridin-3-yl)oxy)cyclohexanecarboxylic acid], the IC50 turned out to be 0.217 µM.

`CCCCCN(C)C(=O)NCc1c(-c2ccc(O[C@H]3CCC[C@H](C(=O)O)C3)c(C)n2)nnn1C` [Example 111, (1S,3S)-3-((2-methyl-6-(1-methyl-5-((3-methyl-3-pentylureido)methyl)-1H-1,2,3-triazol-4-yl)pyridin-3-yl)oxy)cyclohexanecarboxylic acid]: the IC50 is 0.226 µM.

Turning to `Cc1nc(-c2nnn(C)c2CNC(=O)NCc2ccccc2)ccc1O[C@H]1CCC[C@H](C(=O)O)C1` [Example 112, (1S,3S)-3-((6-(5-((3-benzylureido)methyl)-1-methyl-1H-1,2,3-triazol-4-yl)-2-methylpyridin-3-yl)oxy)cyclohexane-1-carboxylic acid], the IC50 was 0.063 µM.

On to `Cc1nc(-c2nnn(C)c2CN(C)C(=O)NCc2ccccc2)ccc1O[C@H]1CCC[C@H](C(=O)O)C1` [Example 113, (1S,3S)-3-((6-(5-((3-benzyl-1-methylureido)methyl)-1-methyl-1H-1,2,3-triazol-4-yl)-2-methyl-pyridin-3-yl)oxy)cyclohexane-1-carboxylic acid], for which the IC50 was 0.218 µM.
